Results published in ChEMBL document CHEMBL6153141, “Design, Synthesis, and Mechanism Study of Novel BMX Inhibitors Based on the Core of 1,3,5-Triazin-2-Amine for the Treatment of Gastric Carcinoma” (J Med Chem, 2025).
The source made the active and inactive calls. No cut-off for these calls is given here.

Experiments:
Cytochrome P450 2C19 = Cytochrome P450 2C19 (Homo sapiens, UniProt P33261); experiment: Inhibition of CYP2C19 in human liver microsomes using omeprazole as substrate preincubated for 5 mins followed by NADPH addition and measured after 10 mins by LC-MS/MS analysis; assay type: ADME, Microsome
Chain of Cytochrome P450 2C19 (P33261 whole entry): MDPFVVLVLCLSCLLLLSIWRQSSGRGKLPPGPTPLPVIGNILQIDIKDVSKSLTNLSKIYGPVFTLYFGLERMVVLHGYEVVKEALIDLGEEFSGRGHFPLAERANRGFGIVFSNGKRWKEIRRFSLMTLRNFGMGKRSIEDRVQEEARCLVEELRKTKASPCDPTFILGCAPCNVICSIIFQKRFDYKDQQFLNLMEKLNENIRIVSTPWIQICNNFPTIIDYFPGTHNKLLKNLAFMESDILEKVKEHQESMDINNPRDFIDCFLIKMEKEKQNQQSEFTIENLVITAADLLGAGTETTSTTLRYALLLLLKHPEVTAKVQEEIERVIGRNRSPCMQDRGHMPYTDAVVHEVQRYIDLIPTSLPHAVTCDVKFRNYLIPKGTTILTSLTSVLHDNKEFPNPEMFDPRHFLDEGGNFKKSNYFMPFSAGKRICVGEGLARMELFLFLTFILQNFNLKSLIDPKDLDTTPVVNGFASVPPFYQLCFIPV

[1] = Toxicity in female BALB/c nude mouse model xenografted with human HGC-27 cells assessed as effect on spleen at 30 mg/kg, ip administered for 21 days by H and E staining based analysis; assay type: organism-based; conditions: in vivo, 504 h, time 21 day
HGC-27 [2] = experiment: Antiproliferative activity against human HGC-27 cells assessed as reduction in number of EdU-positive cells incubated for 48 hrs by confocal laser scanning microscopic analysis; assay type: functional, cell-based; conditions: dose 5-15 µM
MGC-803 [3] = experiment: Antiproliferative activity against human MGC-803 cells assessed as reduction in number of EdU-positive cells incubated for 48 hrs by confocal laser scanning microscopic analysis; assay type: functional, cell-based; conditions: dose 5-15 µM
HCT-116 = experiment: Anticancer activity against human HCT-116 cells assessed as inhibition of cell proliferation incubated for 72 hrs by MTT assay; assay type: functional, cell-based; conditions: HCT-116, 72 h
HGC-27 [4] = experiment: Inhibition of colony formation in human HGC-27 cells assessed as decrease in clonogenic ability at 2.5 to 10 uM incubated for 48 hrs by crystal violet staining based analysis; assay type: functional, cell-based; conditions: dose 2.5-10 µM
MGC-803 [5] = experiment: Anticancer activity against human MGC-803 cells assessed as inhibition of cell proliferation incubated for 72 hrs by MTT assay; assay type: functional, cell-based; conditions: MGC-803, 72 h
PC-3 = experiment: cells; conditions: Homo sapiens, PC-3, 72 h
Description: Anticancer activity against human PC-3 cells assessed as inhibition of cell proliferation incubated for 72 hrs by MTT assay

MGC-803 [6] = experiment: Effect on mTOR expression in human MGC-803 cells at 10 to 20 uM incubated for 48 hrs by Western blot analysis; assay type: functional, cell-based; conditions: dose 10-20 µM
[7] = Toxicity in female BALB/c nude mouse model xenografted with human HGC-27 cells assessed as effect on lung at 30 mg/kg, ip administered for 21 days by H and E staining based analysis; assay type: organism-based; conditions: in vivo, 504 h, time 21 day
[8] = Cytotoxicity against H9c2 cells assessed as inhibition of cell proliferation incubated for 72 hrs by MTT assay; assay type: toxicity, cell-based; conditions: rat
MGC-803 [9] = experiment: Induction of apoptosis in human MGC-803 cells assessed as increase in cleaved caspase 3 level incubated for 48 hrs by Western blot analysis; assay type: functional, cell-based; conditions: dose 10-20 µM
PC-9 = experiment: cells; conditions: Homo sapiens, PC-9, 72 h
Description: Anticancer activity against human PC-9 cells assessed as inhibition of cell proliferation incubated for 72 hrs by MTT assay

HGC-27 [10] = experiment: cells; conditions: Homo sapiens, HGC-27, 48 h
Description: Antiproliferative activity against human HGC-27 cells assessed as inhibition of cell viability incubated for 48 hrs by MTT assay

MCF7 = experiment: Anticancer activity against human MCF7 cells assessed as inhibition of cell proliferation incubated for 72 hrs by MTT assay; assay type: functional, cell-based; conditions: MCF7, 72 h
HGC-27 [11] = experiment: Antitumor activity against human HGC-27 cells xenografted in female BALB/c nude mouse model assessed as reduction in tumor volume at 30 mg/kg/day, ip administered for 21 days; assay type: functional, organism-based; conditions: time 21.0 day
MGC-803 [12] = experiment: Inhibition of AKT-mTOR signaling in human […] cells assessed as decrease in phosphorylated mTOR expression at 10 to 20 uM incubated for 48 hrs by Western blot analysis; assay type: cell-based; conditions: dose 10-20 µM
NCI-H1975 = experiment: cells; conditions: Homo sapiens, NCI-H1975, 72 h
Description: Anticancer activity against human NCI-H1975 cells assessed as inhibition of cell proliferation incubated for 72 hrs by MTT assay

CWR22R = experiment: cells; conditions: Homo sapiens, 22Rv1, 72 h
Description: Anticancer activity against human 22Rv1 cells assessed as inhibition of cell proliferation incubated for 72 hrs by MTT assay

[13] = Cytotoxicity against human GES1 cells assessed as inhibition of cell proliferation incubated for 72 hrs by MTT assay; assay type: toxicity, cell-based
[14] = target: Epidermal growth factor receptor (Homo sapiens, UniProt P00533); experiment: Inhibition of EGFR (unknown origin) in presence of ATP at Km concentration
Chain of Epidermal growth factor receptor (P00533 whole entry): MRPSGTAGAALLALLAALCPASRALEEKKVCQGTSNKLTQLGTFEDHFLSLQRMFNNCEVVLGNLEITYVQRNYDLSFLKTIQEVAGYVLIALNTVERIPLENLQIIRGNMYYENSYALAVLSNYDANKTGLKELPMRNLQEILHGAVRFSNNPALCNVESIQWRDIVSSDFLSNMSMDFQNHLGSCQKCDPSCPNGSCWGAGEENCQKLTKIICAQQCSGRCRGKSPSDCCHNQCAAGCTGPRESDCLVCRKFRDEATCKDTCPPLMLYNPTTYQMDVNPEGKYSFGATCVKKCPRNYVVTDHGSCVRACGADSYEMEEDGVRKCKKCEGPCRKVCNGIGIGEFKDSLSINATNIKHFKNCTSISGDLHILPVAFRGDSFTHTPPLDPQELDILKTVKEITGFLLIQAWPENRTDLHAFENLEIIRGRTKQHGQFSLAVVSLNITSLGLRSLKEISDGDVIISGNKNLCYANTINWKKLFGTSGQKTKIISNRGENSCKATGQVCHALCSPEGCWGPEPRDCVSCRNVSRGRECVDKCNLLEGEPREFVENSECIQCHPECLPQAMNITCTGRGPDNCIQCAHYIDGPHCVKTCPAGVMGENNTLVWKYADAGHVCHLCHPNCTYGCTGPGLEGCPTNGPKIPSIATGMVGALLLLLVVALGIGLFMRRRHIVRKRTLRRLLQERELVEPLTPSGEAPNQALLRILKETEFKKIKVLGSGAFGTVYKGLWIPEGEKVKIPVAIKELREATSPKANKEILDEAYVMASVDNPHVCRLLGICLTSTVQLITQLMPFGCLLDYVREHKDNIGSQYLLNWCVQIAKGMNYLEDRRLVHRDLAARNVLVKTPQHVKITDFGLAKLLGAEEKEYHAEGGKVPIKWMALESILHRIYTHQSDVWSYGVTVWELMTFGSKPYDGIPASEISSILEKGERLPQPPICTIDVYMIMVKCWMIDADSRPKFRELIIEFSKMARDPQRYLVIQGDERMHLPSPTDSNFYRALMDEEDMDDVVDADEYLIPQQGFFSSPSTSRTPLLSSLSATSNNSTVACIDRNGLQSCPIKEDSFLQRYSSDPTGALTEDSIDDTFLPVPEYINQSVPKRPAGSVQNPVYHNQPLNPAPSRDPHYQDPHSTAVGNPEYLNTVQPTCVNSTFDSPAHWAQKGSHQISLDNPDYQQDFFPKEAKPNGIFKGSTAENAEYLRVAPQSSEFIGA

HGC-27 [15] = experiment: Induction of apoptosis in human HGC-27 cells assessed as increase in apoptotic cells at 5 to 15 uM incubated for 48 hrs by Annexin V-FITC/PI staining based flow cytometric analysis; assay type: functional, cell-based; conditions: dose 5-15 µM
Cytochrome P450 1A2 = Cytochrome P450 1A2 (Homo sapiens, UniProt P05177); experiment: Inhibition of CYP1A2 in human liver microsomes using phenacetin as substrate preincubated for 5 mins followed by NADPH addition and measured after 10 mins by LC-MS/MS analysis; assay type: ADME, Microsome
Chain of Cytochrome P450 1A2 (P05177 whole entry): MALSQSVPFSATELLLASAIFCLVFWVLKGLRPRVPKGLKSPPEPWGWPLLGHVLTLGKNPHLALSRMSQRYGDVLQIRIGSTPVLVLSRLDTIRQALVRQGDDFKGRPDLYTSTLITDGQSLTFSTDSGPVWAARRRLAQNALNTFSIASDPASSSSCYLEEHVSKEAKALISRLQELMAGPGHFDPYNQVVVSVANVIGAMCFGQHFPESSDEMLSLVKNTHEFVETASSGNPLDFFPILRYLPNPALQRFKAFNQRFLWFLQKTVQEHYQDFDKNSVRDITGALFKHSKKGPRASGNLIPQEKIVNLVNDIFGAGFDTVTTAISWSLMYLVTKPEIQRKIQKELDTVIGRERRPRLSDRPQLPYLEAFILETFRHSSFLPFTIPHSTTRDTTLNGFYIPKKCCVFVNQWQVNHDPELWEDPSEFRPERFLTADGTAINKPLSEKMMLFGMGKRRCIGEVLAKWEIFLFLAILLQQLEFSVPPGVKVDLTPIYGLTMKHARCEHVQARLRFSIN

[16] = Metabolic stability in human liver microsomes assessed as intrinsic clearance at 100 uM measured upto 60 mins in presence of NADPH by LC-MS/MS analysis; assay type: ADME, Microsome; conditions: read-out: CLH
HGC-27 [17] = experiment: Inhibition of AKT-mTOR signaling in human HGC-27 cells assessed as decrease in phosphorylated mTOR expression at 5 to 15 uM incubated for 48 hrs by Western blot analysis; assay type: cell-based; conditions: dose 5-15 µM
HCC827 = experiment: cells; conditions: Homo sapiens, HCC827, 72 h
Description: Anticancer activity against human HCC827 cells assessed as inhibition of cell proliferation incubated for 72 hrs by MTT assay

C6661 = experiment: Anticancer activity against human C666-1 cells assessed as inhibition of cell proliferation incubated for 72 hrs by MTT assay; assay type: functional, cell-based; conditions: C6661, 72 h
HGC-27 [18] = experiment: Antiproliferative activity against human HGC-27 cells assessed as inhibition of cell viability upto 50 uM by MTT assay; assay type: functional, cell-based; conditions: time 24-72 hrs
HGC-27 [19] = experiment: Induction of apoptosis in human HGC-27 cells assessed as increase in cleaved PARP level incubated for 48 hrs by Western blot analysis; assay type: functional, cell-based; conditions: dose 5-15 µM
MGC-803 [20] = experiment: Antiproliferative activity against human MGC-803 cells assessed as inhibition of cell viability upto 50 uM by MTT assay; assay type: functional, cell-based; conditions: time 24-72 hrs
MGC-803 [21] = experiment: Induction of apoptosis in LC3B knockout human MGC-803 cells assessed as increase in cleaved caspase 9 level at 20 uM by Western blot analysis; assay type: functional, cell-based
MGC-803 [22] = experiment: Inhibition of colony formation in human MGC-803 cells assessed as decrease in clonogenic ability at 2.5 to 10 uM incubated for 48 hrs by crystal violet staining based analysis; assay type: functional, cell-based; conditions: dose 2.5-10 µM
[23] = Metabolic stability in rat liver microsomes assessed as intrinsic clearance at 100 uM measured upto 60 mins in presence of NADPH by LC-MS/MS analysis; assay type: ADME, Microsome; conditions: read-out: CLH
Cytochrome P450 3A4 = Cytochrome P450 3A4 (Homo sapiens, UniProt P08684); experiment: Inhibition of CYP3A4 in human liver microsomes using testosterone as substrate preincubated for 5 mins followed by NADPH addition and measured after 10 mins by LC-MS/MS analysis; assay type: ADME, Microsome
Chain of Cytochrome P450 3A4 (P08684 whole entry): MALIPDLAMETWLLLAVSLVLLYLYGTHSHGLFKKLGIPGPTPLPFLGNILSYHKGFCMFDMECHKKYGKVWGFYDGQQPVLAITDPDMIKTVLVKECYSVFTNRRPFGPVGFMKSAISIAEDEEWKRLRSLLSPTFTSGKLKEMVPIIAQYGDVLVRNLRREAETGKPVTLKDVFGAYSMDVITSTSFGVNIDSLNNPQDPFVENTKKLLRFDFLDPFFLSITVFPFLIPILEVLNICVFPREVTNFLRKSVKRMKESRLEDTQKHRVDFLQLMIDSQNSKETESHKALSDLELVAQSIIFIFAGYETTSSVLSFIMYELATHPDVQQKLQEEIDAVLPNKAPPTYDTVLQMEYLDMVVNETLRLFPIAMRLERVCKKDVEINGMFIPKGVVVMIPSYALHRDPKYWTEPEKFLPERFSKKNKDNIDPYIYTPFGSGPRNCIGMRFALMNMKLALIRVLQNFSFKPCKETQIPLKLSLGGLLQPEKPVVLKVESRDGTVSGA

Cytochrome P450 2D6 = Cytochrome P450 2D6 (Homo sapiens, UniProt P10635); experiment: Inhibition of CYP2D6 in human liver microsomes using dextromethorphan as substrate preincubated for 5 mins followed by NADPH addition and measured after 10 mins by LC-MS/MS analysis; assay type: ADME, Microsome
Chain of Cytochrome P450 2D6 (P10635 whole entry): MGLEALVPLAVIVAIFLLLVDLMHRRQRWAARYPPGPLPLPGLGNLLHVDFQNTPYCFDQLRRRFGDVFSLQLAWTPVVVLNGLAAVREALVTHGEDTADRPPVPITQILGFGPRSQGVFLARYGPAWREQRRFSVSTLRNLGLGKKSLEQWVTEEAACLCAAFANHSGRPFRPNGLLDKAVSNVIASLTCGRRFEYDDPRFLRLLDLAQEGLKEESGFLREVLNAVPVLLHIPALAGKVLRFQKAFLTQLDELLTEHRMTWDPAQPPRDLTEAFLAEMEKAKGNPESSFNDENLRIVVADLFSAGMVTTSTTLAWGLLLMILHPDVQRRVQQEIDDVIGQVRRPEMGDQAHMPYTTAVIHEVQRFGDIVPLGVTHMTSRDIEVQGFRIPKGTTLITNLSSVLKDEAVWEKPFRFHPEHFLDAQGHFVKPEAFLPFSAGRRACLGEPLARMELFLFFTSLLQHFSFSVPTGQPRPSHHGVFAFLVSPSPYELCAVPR

HGC-27 [24] = experiment: Antitumor activity against human HGC-27 cells xenografted in female BALB/c nude mouse model assessed as reduction in tumor weight at 30 mg/kg/day, ip administered for 21 days; assay type: functional, organism-based; conditions: time 21.0 day
MGC-803 [25] = experiment: Cell cycle arrest in human MGC-803 cells assessed as accumulation of cells at G1 phase at 10 to 20 uM incubated for 48 hrs by flow cytometric analysis; assay type: functional, cell-based; conditions: dose 10-20 µM
[26] = Toxicity in female BALB/c nude mouse model xenografted with human HGC-27 cells assessed as effect on kidney at 30 mg/kg, ip administered for 21 days by H and E staining based analysis; assay type: organism-based; conditions: in vivo, 504 h, time 21 day

**Q.** With `C=CS(=O)(=O)N1CCC[C@@H](Nc2nc(N)nc(Nc3cccc(Oc4ccccc4)c3)n2)C1` as the compound, how does the IC50 (Cytochrome P450 2C19) read?
**A.** > 100 µM

**Q.** And the Activity [1]?
**A.** Non-toxic

**Q.** And the Activity (HGC-27 [2])?
**A.** Dose-dependent-effect

**Q.** What about the Activity (MGC-803 [3]) of the same compound?
**A.** Dose-dependent-effect

**Q.** What about the IC50 (HCT-116) of the same compound?
**A.** 15.9 µM

**Q.** And the inhibition (HGC-27 [4])?
**A.** Active

**Q.** And the IC50 (MGC-803 [5])?
**A.** 14.4 µM

**Q.** What about the IC50 (PC-3) of the same compound?
**A.** 17.2 µM

**Q.** And the Activity (MGC-803 [6])?
**A.** inactive

**Q.** What about the Activity [7] of the same compound?
**A.** Non-toxic

**Q.** What about the IC50 at 72 h [8] of the same compound?
**A.** > 32 µM

**Q.** And the Activity (MGC-803 [9])?
**A.** Dose-dependent-effect

**Q.** And the IC50 (PC-9)?
**A.** 23.3 µM

**Q.** What about the IC50 (HGC-27 [10]) of the same compound?
**A.** 10.5 µM

**Q.** What about the IC50 (MCF7) of the same compound?
**A.** 8.3 µM

**Q.** And the Activity (HGC-27 [11])?
**A.** Active

**Q.** What about the inhibition (MGC-803 [12]) of the same compound?
**A.** Active

**Q.** And the IC50 (NCI-H1975)?
**A.** 5 µM

**Q.** And the IC50 (CWR22R)?
**A.** 13.4 µM

**Q.** What about the IC50 at 72 h [13] of the same compound?
**A.** 21.2 µM

**Q.** What about the IC50 [14] of the same compound?
**A.** 0.468 µM

**Q.** And the Activity (HGC-27 [15])?
**A.** Active

**Q.** And the IC50 (Cytochrome P450 1A2)?
**A.** > 100 µM

**Q.** What about the microsomal CLint at 100 µM [16] of the same compound?
**A.** 214 µL/min/mg

**Q.** And the inhibition (HGC-27 [17])?
**A.** Active

**Q.** What about the IC50 (HCC827) of the same compound?
**A.** 5.7 µM

**Q.** And the IC50 (C6661)?
**A.** 14.9 µM

**Q.** What about the Activity (HGC-27 [18]) of the same compound?
**A.** Time-dependent-effect

**Q.** And the Activity (HGC-27 [19])?
**A.** Dose-dependent-effect

**Q.** And the Activity (MGC-803 [20])?
**A.** Time-dependent-effect

**Q.** What about the Activity (MGC-803 [21]) of the same compound?
**A.** Active

**Q.** What about the inhibition (MGC-803 [22]) of the same compound?
**A.** Active

**Q.** What about the microsomal CLint at 100 µM [23] of the same compound?
**A.** 304 µL/min/mg

**Q.** And the IC50 (Cytochrome P450 3A4)?
**A.** > 100 µM

**Q.** What about the IC50 (Cytochrome P450 2D6) of the same compound?
**A.** 82 µM

**Q.** And the Activity (HGC-27 [24])?
**A.** Active

**Q.** And the Activity (MGC-803 [25])?
**A.** Active

**Q.** And the Activity [26]?
**A.** Non-toxic
